According to PubChem BioAssay AID2060612 (Molecular Pharmacology Branch, DTP, NCI, 2025):
Values joined by “and” are separate entries in the source; they are usually repeats but may differ in a detail not shown here. Equal entries are not always repeated.

Tested on: 565232-114-T-J1-PDC complex spheroid viability
Experiment: Anticancer human tumor 565232-114-T-J1-PDC patient-derived bladder carcinoma cell line growth inhibition [CLK]
Conditions: for viability, T/C: stronger effect = lower value; active means viability on the fitted dose curve at most 10% of control; inactive means the rest
From the text: A high-throughput screen of multi-cell type tumor spheroids was designed to identify active combinations of […] and targeted small molecules. Complex spheroids include a stromal component modeled by human endothelial cells (HUVEC) and fibroblasts modeled by human mesenchymal stem cells (MSCs). The concentration ranges selected for each drug and investigational agent were based upon clinically achievable concentrations if the clinical Cmax of the agent was known.
Compounds. The drugs and investigational agents: cirtuvivint (SM08502; NSC835563), CC-671 (NSC850746), vemurafenib (NSC761431), tapotoclax (NSC804041), sotorasib (NSC818433), adagrasib (NSC831453), MRTX-1133 (NSC836407), BAY2416964 (NSC825713), copanlisib (NSC816437), inavolisib (NSC800729), abemaciclib (NSC768073), osimertinib (NSC779217), entinostat (NSC756642), eltanexor (KPT-8602, NSC794443), venetoclax (NSC766270), ceralasertib (NSC777638), bortezomib (NSC756655), olaparib (NSC753686), talazoparib (NSC767125), alisertib (NSC759677), peposertib (NSC802822), gemcitabine (NSC613327), 5-fluorouracil (NSC19893), SN-38 (NSC673596), oxaliplatin (NSC266046), paclitaxel (NSC125973), and doxorubicin (NSC123127), were obtained from the National Cancer Institute (NCI) Developmental Therapeutics Program Chemical Repository. The FDA-approved anticancer drug set is available from the Developmental Therapeutics Program at https://dtp.cancer.gov/organization/dscb/obtaining/available plates.htm. […] The stock solutions were prepared in dimethyl sulfoxide (DMSO, Sigma-Aldrich, St. Louis, MO, cat. D2650), except for the platinum complexes which were prepared in saline (Quality Biological, Gaithersburg, MD, cat. 114-055-101), at 800-fold the tested concentration and stored at -70 degrees C prior to their use. All drugs and investigational agents were tested over a range starting from a high concentration at or near the clinical Cmax and decreasing in half-log increments. If the clinical Cmax for an agent had not been determined, the highest concentration tested was 10 microM.
Cell Culture. All cells were maintained in an incubator at 37 degrees C and 5% CO2 with 95% humidity. The PDC lines were cultured according to standard operating procedures established by the NCI PDMR. Briefly, all PDCs were thawed and cultured in Matrigel-coated flasks prepared with a working solution of 1X Ham's F-12 nutrient mix, without supplementation (Invitrogen, Waltham, MA, cat. 11765054), 100 U/mL penicillin-streptomycin (Invitrogen, cat. 15140122), and 2.5% Matrigel (Corning Inc., Corning, NY, cat. 354248) for the first three passages. The 947758-054-R-J2-PDC line was cultured in 6B/Colon 1A media, which includes advanced DMEM/F-12 (Thermo Fisher Scientific, cat. 12634028), 10 mM HEPES (Thermo Fisher Scientific, cat. 15630080), 1X GlutaMAX supplement (Thermo Fisher Scientific, cat. 35050061), 0.1 mg/mL primocin (InvivoGen, cat. ant-pm-2), 10% defined fetal bovine serum, heat inactivated (HyClone Laboratories Inc., cat. SH30070.03HI), 1.25 mM N-Acetyl-L-cysteine (Sigma-Aldrich, cat. A9165), 10 mM nicotinamide (Sigma-Aldrich, cat. N0636), 1X B-27 supplement (Thermo Fisher Scientific, cat. 17504044), 1X N-2 supplement (Thermo Fisher Scientific, cat. 17502048), and 10 microM Y-27632 dihydrochloride (Tocris Bioscience, cat. 1254). The 876862-298-R-J1-PDC was cultured in 6E media, which includes all 6B/Colon 1A media components plus 50% L-WRN conditioned media (ATCC, cat. CRL-3276), 50 ng/mL recombinant human EGF recombinant protein (hEGF; Thermo Fisher Scientific, cat. PHG0311), 10 ng/mL recombinant human fibroblast growth factor 10 (hGFG-10; PeproTech, cat. 100-26), 1 ng/mL recombinant human fibroblast growth factor 2 (hFGF-2; PeproTech, cat. 100-18B), and 1 µM prostaglandin E2 (PGE2; Tocris, cat. 2296). The 227483-062-R1-J1-PDC line was cultured in Panc media, containing all 6E components except hFGF-2, with the addition of 500 nM SB-431542 (Selleckchem, cat. S1067) and 10 nM gastrin (Tocris, cat. 3006). […]
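Further: spheroids exposed to compounds for 7 days before readout.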
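Wherever viability, T/C is given: 100% = DMSO vehicle wells with luminescence normalized to vehicle control.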

CCc1c2c(nc3ccc(O)cc13)-c1cc3c(c(=O)n1C2)COC(=O)[C@]3(O)CC + CN1CCN(c2cc(C(=O)Nc3cc4cc(-c5cnn(C)c5)ccc4cn3)ccn2)CC1
< 3.16 nM: IC50 (curve of first compound, second compound 0.316 µM) | IC50 (curve of first compound, second compound 1 µM) | IC50 (curve of first compound, second compound 3.16 µM) | IC50 (curve of first compound, second compound 10 µM)
inactive: viability, T/C (second compound 0.0316 µM, first compound 0.00316 µM) 96.6% | viability, T/C (second compound 0.0316 µM, first compound 0.01 µM) 61.8% | viability, T/C (second compound 0.0316 µM, first compound 0.0316 µM) 54.6% | viability, T/C (second compound 0.0316 µM, first compound 0.1 µM) 38.5% | viability, T/C (second compound 0.0316 µM, first compound 0.316 µM) 16.3% | viability, T/C (second compound 0.1 µM, first compound 0.00316 µM) 113% | viability, T/C (second compound 0.1 µM, first compound 0.01 µM) 48.3% | viability, T/C (second compound 0.1 µM, first compound 0.0316 µM) 39.1% | viability, T/C (second compound 0.1 µM, first compound 0.1 µM) 21.1% | viability, T/C (second compound 0.1 µM, first compound 0.316 µM) 7.93% | viability, T/C (second compound 0.316 µM, first compound 0.00316 µM) 18.2% | viability, T/C (second compound 0.316 µM, first compound 0.01 µM) 17.8% | viability, T/C (second compound 0.316 µM, first compound 0.0316 µM) 13.5%
active: viability, T/C (second compound 0.0316 µM, first compound 1 µM) 5.15% | viability, T/C (second compound 0.1 µM, first compound 1 µM) 3.53% | viability, T/C (second compound 0.316 µM, first compound 0.1 µM) 5.02% | viability, T/C (second compound 0.316 µM, first compound 0.316 µM) 1.56% | viability, T/C (second compound 0.316 µM, first compound 1 µM) 2.33% | viability, T/C (second compound 1 µM, first compound 0.00316 µM) 0.86% | viability, T/C (second compound 1 µM, first compound 0.01 µM) 0.17% | viability, T/C (second compound 1 µM, first compound 0.0316 µM) 1.6% | viability, T/C (second compound 1 µM, first compound 0.1 µM) 0.24% | viability, T/C (second compound 1 µM, first compound 0.316 µM) 0.5% | viability, T/C (second compound 1 µM, first compound 1 µM) 1.14% | viability, T/C (second compound 3.16 µM, first compound 0.00316 µM) 0.22% | viability, T/C (second compound 3.16 µM, first compound 0.01 µM) 1% | viability, T/C (second compound 3.16 µM, first compound 0.0316 µM) 0.2% | viability, T/C (second compound 3.16 µM, first compound 0.1 µM) 0.12% | viability, T/C (second compound 3.16 µM, first compound 0.316 µM) 1.33% | viability, T/C (second compound 3.16 µM, first compound 1 µM) 2.74% | viability, T/C (second compound 10 µM, first compound 0.00316 µM) 0.22% | viability, T/C (second compound 10 µM, first compound 0.01 µM) 1.67% | viability, T/C (second compound 10 µM, first compound 0.0316 µM) 0.18% | viability, T/C (second compound 10 µM, first compound 0.1 µM) 0.17% | viability, T/C (second compound 10 µM, first compound 0.316 µM) 1.26% | viability, T/C (second compound 10 µM, first compound 1 µM) 0.19%
13.9 nM: IC50 (curve of first compound, second compound 0.1 µM)
36 nM: IC50 (curve of first compound, second compound 0.0316 µM)

CC1(C)CCC(CN2CCN(c3ccc(C(=O)NS(=O)(=O)c4ccc(NCC5CCOCC5)c([N+](=O)[O-])c4)c(Oc4cnc5[nH]ccc5c4)c3)CC2)=C(c2ccc(Cl)cc2)C1
7080 nM and 9110 nM: IC50 (curve of compound)
inactive: viability, T/C (compound 0.0316 µM) 83.5% and 111% | viability, T/C (compound 0.1 µM) 86.5% and 97.6% | viability, T/C (compound 0.316 µM) 80.5% and 95.8% | viability, T/C (compound 1 µM) 72.6% and 95.6% | viability, T/C (compound 3.16 µM) 78.2% and 100% | viability, T/C (compound 10 µM) 38.4% and 45.6%
